# Assay results published in ChEMBL document CHEMBL1201862, “PubChem BioAssay data set” (2004).
# Calls of active or inactive are those of the source.
# Columns and labels:
# [1] = biological target: T1, Induced myeloid leukemia cell differentiation protein Mcl-1 (Homo sapiens, UniProt Q07820); format: functional
# [2] = biological target: Dual specificity protein phosphatase 3 (Homo sapiens, UniProt P51452); assay: SAR VHR1 Fluorescent Assay for In Vitro dose response studies. [Related pubchem assays (depositor defined):AID1654, AID1661, AID1878, AID1992, AID2004, AID2070, AID2085]; format: functional
# Sequence of Dual specificity protein phosphatase 3 (P51452 whole entry): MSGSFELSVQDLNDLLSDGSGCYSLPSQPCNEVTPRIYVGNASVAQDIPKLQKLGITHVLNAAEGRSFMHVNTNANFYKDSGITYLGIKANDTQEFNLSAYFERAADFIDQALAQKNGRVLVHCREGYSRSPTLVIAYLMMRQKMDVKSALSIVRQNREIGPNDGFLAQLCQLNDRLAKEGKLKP
# [3] = biological target: T2, Tyrosine-protein phosphatase non-receptor type 7 (Homo sapiens, UniProt P35236); format: functional
# T2 sequence (P35236 whole entry): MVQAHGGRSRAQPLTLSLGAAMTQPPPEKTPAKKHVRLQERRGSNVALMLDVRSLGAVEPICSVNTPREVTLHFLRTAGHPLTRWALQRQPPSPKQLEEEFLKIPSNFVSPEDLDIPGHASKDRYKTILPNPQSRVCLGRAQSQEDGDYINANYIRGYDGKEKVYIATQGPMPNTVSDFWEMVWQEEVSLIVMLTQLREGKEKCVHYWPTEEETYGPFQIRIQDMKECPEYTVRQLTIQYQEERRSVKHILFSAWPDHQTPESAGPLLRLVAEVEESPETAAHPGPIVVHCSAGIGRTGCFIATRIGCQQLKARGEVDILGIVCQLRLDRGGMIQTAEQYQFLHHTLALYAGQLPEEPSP
# [4] = biological target: T1, Induced myeloid leukemia cell differentiation protein Mcl-1; assay: MCL1-BIM BH3 interaction inhibitors, dose response, biochemical, fluorescence polarization, BIM-BH3 peptide, 1536-well (AID 2217)
# [5] = biological target: T3, Dual specificity protein phosphatase 6 (Rattus norvegicus, UniProt Q64346); format: functional
# T3 sequence (Q64346 whole entry): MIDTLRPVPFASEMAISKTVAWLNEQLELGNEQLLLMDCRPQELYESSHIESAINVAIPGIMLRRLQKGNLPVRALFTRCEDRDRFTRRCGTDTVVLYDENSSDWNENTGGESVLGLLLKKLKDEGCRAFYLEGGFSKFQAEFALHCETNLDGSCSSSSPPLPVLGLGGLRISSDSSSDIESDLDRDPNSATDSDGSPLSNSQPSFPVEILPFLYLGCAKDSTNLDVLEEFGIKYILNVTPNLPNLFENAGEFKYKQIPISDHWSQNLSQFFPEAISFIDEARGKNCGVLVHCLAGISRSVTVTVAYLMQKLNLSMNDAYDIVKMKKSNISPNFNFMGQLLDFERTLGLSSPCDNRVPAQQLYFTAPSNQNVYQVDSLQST
# [6] = biological target: T3, Dual specificity protein phosphatase 6
# [7] = biological target: T2, Tyrosine-protein phosphatase non-receptor type 7; assay: redox-dependent HePTP inhibition, mechanism study, biochemical, fluorescence (AID 2068); format: functional
# [8] = biological target: Bcl-2-like protein 1 (Homo sapiens, UniProt Q07817); assay: BCL-XL inhibitors, dose response, selectivity assay for MCL1 inhibitor project, biochemical, fluorescence polarization, 1536-well (AID 2218)
# Sequence of Bcl-2-like protein 1 (Q07817 whole entry): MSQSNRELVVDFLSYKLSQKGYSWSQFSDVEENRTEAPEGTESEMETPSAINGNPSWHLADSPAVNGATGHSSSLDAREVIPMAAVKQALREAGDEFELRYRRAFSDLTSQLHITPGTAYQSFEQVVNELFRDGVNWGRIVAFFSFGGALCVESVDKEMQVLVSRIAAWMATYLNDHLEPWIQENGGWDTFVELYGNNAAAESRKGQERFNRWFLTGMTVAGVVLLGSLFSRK
# [9] = biological target: T4, SUMO-activating enzyme (Homo sapiens, UniProt Q9UBT2); assay: inhibitors of in vitro SUMOylation cascade, primary screen, biochemical, HTRF, uHTS (AID 2006); format: protein-complex assay
# T4 sequence (Q9UBE0 whole entry): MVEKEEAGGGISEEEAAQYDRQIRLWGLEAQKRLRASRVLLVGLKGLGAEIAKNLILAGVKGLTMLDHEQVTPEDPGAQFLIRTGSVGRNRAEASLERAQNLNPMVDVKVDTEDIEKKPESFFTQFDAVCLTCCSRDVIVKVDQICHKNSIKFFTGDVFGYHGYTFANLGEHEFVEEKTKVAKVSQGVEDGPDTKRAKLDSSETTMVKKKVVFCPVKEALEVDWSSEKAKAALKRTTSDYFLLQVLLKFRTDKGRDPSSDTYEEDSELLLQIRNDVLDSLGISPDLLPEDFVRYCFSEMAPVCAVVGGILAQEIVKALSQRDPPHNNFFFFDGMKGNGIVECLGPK
# T4 sequence (Q9UBT2 whole entry): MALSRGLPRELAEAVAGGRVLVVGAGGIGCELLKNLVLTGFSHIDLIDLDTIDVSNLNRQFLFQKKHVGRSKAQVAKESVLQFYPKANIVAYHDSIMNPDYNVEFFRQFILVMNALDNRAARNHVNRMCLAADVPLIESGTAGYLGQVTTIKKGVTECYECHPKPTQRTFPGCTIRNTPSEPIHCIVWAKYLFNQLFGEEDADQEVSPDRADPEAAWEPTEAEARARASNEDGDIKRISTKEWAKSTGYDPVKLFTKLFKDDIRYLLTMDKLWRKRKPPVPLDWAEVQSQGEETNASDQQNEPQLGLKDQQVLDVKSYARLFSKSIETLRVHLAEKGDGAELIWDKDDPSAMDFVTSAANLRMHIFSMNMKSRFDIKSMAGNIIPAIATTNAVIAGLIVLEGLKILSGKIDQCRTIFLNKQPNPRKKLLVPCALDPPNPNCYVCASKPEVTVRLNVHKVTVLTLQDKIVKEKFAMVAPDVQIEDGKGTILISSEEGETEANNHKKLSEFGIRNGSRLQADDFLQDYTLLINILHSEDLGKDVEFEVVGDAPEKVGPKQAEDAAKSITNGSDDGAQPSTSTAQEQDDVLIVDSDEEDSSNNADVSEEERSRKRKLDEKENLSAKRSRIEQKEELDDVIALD
# [10] = biological target: Genome polyprotein (dengue virus type 2, UniProt P29990); assay: Dengue-2 NS5 methyltransferase inhibitors, primary screen, biochemical, confirmation dose response (AID 588689); format: functional
# Sequence of Genome polyprotein (P29990 2492-3391 limits assumed): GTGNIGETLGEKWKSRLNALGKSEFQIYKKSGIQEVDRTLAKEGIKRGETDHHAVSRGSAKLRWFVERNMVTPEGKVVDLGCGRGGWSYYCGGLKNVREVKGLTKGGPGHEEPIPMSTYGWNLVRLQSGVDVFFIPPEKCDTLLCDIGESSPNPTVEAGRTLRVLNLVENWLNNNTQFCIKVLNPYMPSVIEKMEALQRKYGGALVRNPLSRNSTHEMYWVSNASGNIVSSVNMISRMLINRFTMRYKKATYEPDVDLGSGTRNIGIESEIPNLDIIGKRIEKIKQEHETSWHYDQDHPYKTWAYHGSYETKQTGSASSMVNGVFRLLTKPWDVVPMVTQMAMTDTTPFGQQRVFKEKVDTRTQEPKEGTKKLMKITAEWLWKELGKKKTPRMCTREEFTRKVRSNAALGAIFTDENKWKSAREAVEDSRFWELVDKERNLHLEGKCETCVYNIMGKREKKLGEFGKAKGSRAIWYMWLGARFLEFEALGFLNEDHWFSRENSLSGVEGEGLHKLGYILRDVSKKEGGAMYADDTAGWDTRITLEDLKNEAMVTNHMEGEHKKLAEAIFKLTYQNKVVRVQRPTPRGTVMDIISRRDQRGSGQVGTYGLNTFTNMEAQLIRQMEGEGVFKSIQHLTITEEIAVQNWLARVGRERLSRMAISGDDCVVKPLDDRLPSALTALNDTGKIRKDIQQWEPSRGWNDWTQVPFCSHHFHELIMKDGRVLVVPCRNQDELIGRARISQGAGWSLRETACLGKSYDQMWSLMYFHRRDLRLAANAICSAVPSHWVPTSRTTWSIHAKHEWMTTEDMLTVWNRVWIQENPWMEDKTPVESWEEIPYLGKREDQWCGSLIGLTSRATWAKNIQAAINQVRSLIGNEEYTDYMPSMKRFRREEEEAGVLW
# [11] = biological target: Glyceraldehyde-3-phosphate dehydrogenase (Homo sapiens, UniProt P04406)
# Sequence of Glyceraldehyde-3-phosphate dehydrogenase (P04406 whole entry): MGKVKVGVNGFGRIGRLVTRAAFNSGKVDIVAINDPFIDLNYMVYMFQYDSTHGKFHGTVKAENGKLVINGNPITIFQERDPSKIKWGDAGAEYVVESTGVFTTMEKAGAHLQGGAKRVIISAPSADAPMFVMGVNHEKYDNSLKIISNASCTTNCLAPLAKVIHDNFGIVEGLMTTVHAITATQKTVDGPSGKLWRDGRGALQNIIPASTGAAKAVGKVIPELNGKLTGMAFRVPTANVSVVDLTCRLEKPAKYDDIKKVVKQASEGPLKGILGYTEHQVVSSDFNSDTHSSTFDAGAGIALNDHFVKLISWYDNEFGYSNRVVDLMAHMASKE
# [12] = biological target: T4, SUMO-activating enzyme; assay: SUMOylation inhibitor hit validation, confirmation, SUMOylation inhibitor project, biochemical, AlphaScreen (AID 2018); format: functional
# [13] = biological target: Estrogen receptor beta (Homo sapiens, UniProt Q92731); assay: ERβ–SRC-3 coactivator interaction inhibitors, confirmation, orthogonal assay, biochemical, ELISA, streptavidin-HRP readout (AID 1060)
# Sequence of Estrogen receptor beta (Q92731 whole entry): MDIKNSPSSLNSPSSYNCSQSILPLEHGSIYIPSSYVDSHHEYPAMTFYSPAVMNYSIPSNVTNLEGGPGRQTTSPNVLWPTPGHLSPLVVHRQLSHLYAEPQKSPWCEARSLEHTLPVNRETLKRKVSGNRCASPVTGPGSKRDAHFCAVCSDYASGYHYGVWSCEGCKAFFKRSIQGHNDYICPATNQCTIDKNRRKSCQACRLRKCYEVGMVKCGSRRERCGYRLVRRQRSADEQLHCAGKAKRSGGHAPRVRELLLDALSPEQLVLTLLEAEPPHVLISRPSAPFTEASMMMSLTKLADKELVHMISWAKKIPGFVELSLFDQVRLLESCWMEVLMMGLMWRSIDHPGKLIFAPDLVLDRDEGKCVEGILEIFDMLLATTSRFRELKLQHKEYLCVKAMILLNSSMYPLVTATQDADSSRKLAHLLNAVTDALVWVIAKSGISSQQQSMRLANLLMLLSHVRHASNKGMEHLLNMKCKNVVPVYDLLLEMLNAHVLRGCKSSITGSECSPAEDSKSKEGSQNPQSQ
# [14] = biological target: T5, Bcl-2-like protein 10 (Homo sapiens, UniProt Q9HD36); assay: displacers of TR3 peptide from Bcl-B, primary screen, selectivity assay for Bfl-1 inhibitor project, biochemical, fluorescence polarization, FITC-TR3 peptide (AID 748);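 note: fluorescence polarization from a fluorescein-labelled TR3 peptide binding purified Bcl-B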
# T5 sequence (Q9HD36 whole entry): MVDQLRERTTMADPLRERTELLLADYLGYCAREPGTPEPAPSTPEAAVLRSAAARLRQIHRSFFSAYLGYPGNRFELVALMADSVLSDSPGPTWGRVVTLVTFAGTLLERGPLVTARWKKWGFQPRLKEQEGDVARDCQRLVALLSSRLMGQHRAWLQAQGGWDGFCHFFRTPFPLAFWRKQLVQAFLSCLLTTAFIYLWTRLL
# [15] = biological target: T6, Neuropeptide Y receptor type 1 (Homo sapiens, UniProt P25929); assay: NPY-Y1 receptor antagonist potency, dose response, cell-based (AID 1277); format: functional
# T6 sequence (P25929 whole entry): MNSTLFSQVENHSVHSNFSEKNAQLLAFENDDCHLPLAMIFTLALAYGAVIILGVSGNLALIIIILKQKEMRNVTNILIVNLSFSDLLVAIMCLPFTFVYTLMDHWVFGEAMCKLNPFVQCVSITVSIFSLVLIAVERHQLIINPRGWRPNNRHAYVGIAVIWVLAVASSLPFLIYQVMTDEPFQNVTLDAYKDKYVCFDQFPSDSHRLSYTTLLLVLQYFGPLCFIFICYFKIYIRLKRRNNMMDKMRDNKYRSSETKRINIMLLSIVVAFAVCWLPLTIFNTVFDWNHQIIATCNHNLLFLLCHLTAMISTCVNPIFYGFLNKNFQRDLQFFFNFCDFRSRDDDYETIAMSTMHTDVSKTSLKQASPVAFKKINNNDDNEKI
# [16] = biological target: T7, Neuropeptide Y receptor type 2 (Homo sapiens, UniProt P49146); assay: NPY-Y2 antagonist potency, selectivity check, dose response, counter-screen for NPY-Y1 antagonist project, cell-based (AID 1278); format: functional
# T7 sequence (P49146 whole entry): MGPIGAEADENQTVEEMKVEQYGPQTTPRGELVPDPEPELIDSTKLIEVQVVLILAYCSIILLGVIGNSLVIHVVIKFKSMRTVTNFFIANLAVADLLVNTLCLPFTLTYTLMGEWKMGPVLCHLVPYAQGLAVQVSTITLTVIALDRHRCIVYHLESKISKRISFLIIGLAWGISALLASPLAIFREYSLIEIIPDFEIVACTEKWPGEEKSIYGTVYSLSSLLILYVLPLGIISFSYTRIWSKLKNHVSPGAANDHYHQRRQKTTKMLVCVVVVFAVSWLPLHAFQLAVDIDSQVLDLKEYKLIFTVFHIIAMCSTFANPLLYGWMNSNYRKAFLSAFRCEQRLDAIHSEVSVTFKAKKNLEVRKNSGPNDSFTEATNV
# [17] = biological target: T8, E3 ubiquitin-protein ligase XIAP (Homo sapiens, UniProt P98170); assay: XIAP antagonists, biochemical, IAP family, fluorescence polarization (AID 1018); format: functional
# T8 sequence (P98170 whole entry): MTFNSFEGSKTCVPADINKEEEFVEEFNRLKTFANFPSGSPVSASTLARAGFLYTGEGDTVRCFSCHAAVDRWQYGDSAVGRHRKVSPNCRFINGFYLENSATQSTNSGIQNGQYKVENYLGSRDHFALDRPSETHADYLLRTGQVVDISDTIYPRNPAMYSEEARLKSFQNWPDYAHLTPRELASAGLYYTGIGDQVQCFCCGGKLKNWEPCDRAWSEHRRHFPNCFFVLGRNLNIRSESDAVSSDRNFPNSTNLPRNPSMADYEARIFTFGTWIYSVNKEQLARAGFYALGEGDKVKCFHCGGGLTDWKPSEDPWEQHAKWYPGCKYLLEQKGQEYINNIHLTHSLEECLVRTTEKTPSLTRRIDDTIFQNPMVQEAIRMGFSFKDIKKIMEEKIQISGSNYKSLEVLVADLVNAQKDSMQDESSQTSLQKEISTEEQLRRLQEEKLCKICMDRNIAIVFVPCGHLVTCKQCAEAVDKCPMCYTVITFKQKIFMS
# [18] = biological target: T8, E3 ubiquitin-protein ligase XIAP; assay: Counter Screen using XIAP-Bir3 for Chemical Antagonists of Bir1/2 domains of IAP-family anti-apoptotic proteins. [Related pubchem assays (depositor defined):AID1018, AID1449, AID1514, AID1638, AID1749, AID1750, AID488957, AID488963]
# [19] = biological target: Potassium voltage-gated channel subfamily KQT member 2 (Rattus norvegicus, UniProt O88943, W236L); assay: KCNQ2 channel potentiators, dose response, mechanism study for KCNQ2 potentiator project, cell-based, automated electrophysiology (AID 2603); format: functional
# Sequence of Potassium voltage-gated channel subfamily KQT member 2 (O88943 whole entry W236L): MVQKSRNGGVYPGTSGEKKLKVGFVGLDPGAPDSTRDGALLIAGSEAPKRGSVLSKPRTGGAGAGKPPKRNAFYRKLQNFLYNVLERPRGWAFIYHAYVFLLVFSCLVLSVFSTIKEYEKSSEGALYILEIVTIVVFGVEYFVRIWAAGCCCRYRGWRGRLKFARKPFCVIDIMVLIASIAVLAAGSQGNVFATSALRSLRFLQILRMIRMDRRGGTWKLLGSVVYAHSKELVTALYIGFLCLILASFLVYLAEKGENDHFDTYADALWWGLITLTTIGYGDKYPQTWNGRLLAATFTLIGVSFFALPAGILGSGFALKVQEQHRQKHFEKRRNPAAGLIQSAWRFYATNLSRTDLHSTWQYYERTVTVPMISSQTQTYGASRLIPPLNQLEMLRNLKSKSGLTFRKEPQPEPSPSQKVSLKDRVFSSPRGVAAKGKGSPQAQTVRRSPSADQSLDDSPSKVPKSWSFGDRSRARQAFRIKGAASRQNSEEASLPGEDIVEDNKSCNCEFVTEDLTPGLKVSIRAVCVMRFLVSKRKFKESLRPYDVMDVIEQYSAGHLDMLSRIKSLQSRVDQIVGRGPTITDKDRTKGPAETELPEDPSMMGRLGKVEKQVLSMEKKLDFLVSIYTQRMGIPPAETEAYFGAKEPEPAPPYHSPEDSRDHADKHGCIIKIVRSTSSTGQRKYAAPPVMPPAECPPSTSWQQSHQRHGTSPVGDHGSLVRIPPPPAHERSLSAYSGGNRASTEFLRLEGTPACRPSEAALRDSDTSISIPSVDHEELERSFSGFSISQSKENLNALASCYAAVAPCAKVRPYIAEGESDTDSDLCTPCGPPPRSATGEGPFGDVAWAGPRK
# [20] = biological target: T9, Protein RecA (Mycobacterium tuberculosis, UniProt P9WHJ3); assay: Fluorescence Cell-Free Homogeneous Dose Retest to Identify Inhibitors of RecA-Intein Splicing Activity. [Related pubchem assays (depositor defined):AID2097, AID2223, AID489010, AID492950]; format: functional
# T9 sequence (P9WHJ3 whole entry): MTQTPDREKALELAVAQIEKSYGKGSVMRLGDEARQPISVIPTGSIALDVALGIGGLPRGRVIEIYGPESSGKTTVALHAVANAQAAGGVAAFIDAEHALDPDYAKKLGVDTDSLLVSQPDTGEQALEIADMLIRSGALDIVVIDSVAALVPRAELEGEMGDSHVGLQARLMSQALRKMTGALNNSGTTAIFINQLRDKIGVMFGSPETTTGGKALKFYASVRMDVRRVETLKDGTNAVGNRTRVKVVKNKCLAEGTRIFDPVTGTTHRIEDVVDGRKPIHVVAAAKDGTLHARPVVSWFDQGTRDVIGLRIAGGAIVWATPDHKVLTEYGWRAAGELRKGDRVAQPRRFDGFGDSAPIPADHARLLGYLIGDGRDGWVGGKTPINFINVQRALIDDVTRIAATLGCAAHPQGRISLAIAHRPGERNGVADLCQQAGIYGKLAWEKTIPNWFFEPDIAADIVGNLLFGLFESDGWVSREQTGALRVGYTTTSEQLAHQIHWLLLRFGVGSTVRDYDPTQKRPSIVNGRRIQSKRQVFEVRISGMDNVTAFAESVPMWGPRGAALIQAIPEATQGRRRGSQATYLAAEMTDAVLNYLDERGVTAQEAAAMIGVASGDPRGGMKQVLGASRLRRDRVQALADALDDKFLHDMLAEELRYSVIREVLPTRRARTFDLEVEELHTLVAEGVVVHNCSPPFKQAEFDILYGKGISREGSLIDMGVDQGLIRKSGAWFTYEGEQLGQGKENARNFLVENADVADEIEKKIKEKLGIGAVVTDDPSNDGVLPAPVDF
# [21] = biological target: T10, Replicative DNA helicase DnaB (Mycobacterium tuberculosis, UniProt P9WMR3); assay: DnaB intein splicing inhibitors, dose response, biochemical, cell-free fluorescence (AID 449749); format: functional
# T10 sequence (P9WMR3 whole entry): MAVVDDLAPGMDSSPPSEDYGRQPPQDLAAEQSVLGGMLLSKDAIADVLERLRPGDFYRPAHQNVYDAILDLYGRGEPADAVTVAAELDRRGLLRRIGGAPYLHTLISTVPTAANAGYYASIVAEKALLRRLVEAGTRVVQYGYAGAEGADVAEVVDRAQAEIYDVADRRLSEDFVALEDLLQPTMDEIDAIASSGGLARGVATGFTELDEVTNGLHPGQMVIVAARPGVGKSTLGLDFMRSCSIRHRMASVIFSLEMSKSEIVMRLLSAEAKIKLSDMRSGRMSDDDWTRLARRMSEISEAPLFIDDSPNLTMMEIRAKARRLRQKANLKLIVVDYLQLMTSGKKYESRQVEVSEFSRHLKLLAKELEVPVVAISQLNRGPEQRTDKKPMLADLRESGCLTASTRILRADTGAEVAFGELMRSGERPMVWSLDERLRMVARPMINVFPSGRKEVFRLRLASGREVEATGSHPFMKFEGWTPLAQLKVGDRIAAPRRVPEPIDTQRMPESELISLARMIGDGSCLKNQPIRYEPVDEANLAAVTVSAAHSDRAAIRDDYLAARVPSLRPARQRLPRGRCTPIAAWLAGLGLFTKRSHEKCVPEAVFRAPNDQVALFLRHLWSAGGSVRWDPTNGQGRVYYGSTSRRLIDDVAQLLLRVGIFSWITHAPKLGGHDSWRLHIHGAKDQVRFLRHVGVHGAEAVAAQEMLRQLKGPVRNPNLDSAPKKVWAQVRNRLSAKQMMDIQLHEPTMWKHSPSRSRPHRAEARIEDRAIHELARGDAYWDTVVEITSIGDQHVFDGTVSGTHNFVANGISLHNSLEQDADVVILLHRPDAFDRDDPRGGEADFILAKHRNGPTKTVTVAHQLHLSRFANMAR
# [22] = biological target: T11, Estrogen receptor (Homo sapiens, UniProt P03372); assay: potentiators of ERα–SRC-1 coactivator binding, dose response, biochemical, TR-FRET, ERα LBD (AID 737)
# T11 sequence (P03372 whole entry): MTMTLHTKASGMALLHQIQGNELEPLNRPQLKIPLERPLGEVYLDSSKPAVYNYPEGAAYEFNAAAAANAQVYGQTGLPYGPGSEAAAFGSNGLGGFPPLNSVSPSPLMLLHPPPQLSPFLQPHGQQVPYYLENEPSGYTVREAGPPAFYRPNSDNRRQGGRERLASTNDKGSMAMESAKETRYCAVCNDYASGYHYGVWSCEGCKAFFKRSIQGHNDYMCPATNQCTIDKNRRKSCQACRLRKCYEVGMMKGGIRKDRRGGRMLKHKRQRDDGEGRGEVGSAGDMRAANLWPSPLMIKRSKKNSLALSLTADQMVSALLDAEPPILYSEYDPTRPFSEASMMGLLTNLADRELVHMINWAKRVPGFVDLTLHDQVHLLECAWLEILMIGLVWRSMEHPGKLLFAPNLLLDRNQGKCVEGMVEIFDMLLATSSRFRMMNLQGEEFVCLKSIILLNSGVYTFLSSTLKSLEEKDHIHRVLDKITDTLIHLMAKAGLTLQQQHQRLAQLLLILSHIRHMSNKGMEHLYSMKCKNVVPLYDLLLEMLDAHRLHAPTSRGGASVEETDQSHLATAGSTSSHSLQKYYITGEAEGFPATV
# T1 sequence (Q07820 whole entry): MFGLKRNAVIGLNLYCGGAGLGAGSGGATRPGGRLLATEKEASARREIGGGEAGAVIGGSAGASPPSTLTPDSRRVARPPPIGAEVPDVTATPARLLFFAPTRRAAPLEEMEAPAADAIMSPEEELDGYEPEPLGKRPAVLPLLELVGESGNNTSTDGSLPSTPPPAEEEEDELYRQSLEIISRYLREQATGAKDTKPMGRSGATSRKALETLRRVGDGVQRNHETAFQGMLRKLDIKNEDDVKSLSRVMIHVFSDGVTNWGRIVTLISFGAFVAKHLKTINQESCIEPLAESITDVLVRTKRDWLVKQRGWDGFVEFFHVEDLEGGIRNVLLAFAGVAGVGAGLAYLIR
smiles,measurement,setting,value
CSc1nnc(-c2ccco2)c(-c2ccco2)n1,IC50,[1],8.02 µM (active)
same,IC50,[2],29.5 µM (active)
same,IC50,[3],41.5 µM (active)
same,IC50,[4],13.2 µM (not active)
same,IC50,[5],99.7 µM (active)
same,IC50,[6],80.4 µM (active)
same,IC50,[7],1.04 µM (active)
same,IC50,[8],> 109 µM (not active)
same,IC50,[9],15.2 µM (active)
same,IC50,[10],86.8 µM (active)
same,IC50,[11],99.1 µM (active)
same,IC50,[12],2.91 µM (active)
same,IC50,[13],> 50 µM (not active)
same,IC50,[14],19.4 µM (active)
Brc1ccc(-c2csc(/N=C/N3CCCC3)n2)cc1,IC50,[15],> 35 µM (not active)
same,IC50,[16],> 35 µM (not active)
C=C(C)CC1N(c2cccc(OC)c2)C(=O)C2C(C(=O)O)C3C=CC21O3 (configuration not stated),IC50,[17],> 100 µM (not active)
same,IC50,[18],> 100 µM (inactive)
CC(C)(C)c1ccc(OCCC(=O)NCC(c2cccs2)N2CCOCC2)cc1 (configuration not stated),EC50,[19],1.97 µM (active)
CCc1n[nH]c2c1C(c1cccc(OC(=O)N3CCOCC3)c1)C(C#N)=C(N)O2 (configuration not stated),EC50,[20],9.88 µM (active)
same,AC50,[21],20.3 µM (active)
same,EC50,[22],6.39 µM (not active)
